Results taken from article PMC2615640 (Chemical research in toxicology, 2008).
Entries after “also recorded” stand apart in the source; their conditions may differ. Marks after values point to notes of the source that are not given here.

Key:
[1] = test system: NAD(P)H:quinone oxidoreductase 1 (NQO1); experiment: In vitro NQO1 induction assay in Hepa-1c1c7 cells; details: Hepa1c1c7 cells; for NQO1 assay CD ± SD (concentration required for two-fold induction of NQO1): pure compounds, 48 h
DPPH assay = assay type: biochemical; details: for DPPH % FRS ± SD: pure compounds at screening concentration of 100 μM
[2] = test system: NAD(P)H:quinone oxidoreductase 1 (NQO1); details: cited from earlier work
[3] = Crystal violet cytotoxicity assay; assay type: cell-based; details: mouse, Hepa1c1c7 murine hepatoma cells
[4] = test system: antioxidant response element (ARE); experiment: ARE-luciferase activity assay in HepG2-ARE-C8 cells; assay type: cell-based; details: 24 h treatment
[5] = LC-MS-MS analysis of GSH conjugates; details: 1 mM GSH, pH 8.0, 1 h, room temperature
[6] = dry state, 24 h at room temperature, from 98.6% freshly isolated; cited from earlier work
[7] = p.o. dose 500 mg/kg, rats; cited from earlier work

Compound	NQO1 inducing activity (in words) [1]	NQO1 assay CD ± SD (concentration required for two-fold induction of NQO1) [1]	DPPH % FRS ± SD (DPPH assay) [%]	further results
COc1cc(/C=C/C(=O)OCC(O)C(OC)c2ccc(O)c(OC)c2)ccc1O (stereo not shown) [Compound 6, angeliferulate]	respectable NQO1 inducing activities; also recorded: high NQO1 inducing properties	7.5 ± 0.2 µM		
COc1cc(/C=C/C(=O)OCCc2ccc(O)cc2)ccc1O [Compound 7, p-hydroxyphenethyl trans-ferulate]	respectable NQO1 inducing activities; also recorded: high NQO1 inducing properties	2.4 ± 0.3 ^f μM	65 ± 1	radical scavenging activity (in words) (DPPH assay; DPPH): moderate radical scavenging activity
C[S+]([O-])CCCCN=C=S (stereo not shown) [sulforaphane]				CI (chemopreventive index) [2]: 26
CCC/C=C1\OC(=O)C2=C1CCC=C2 [Compound 1, Z-ligustilide]	respectable NQO1 inducing activities		< 50	IC50 at 48 h [3]: 71.2 ± 4.1 µM; ARE-luciferase reporter activity [4]: increased ARE-luciferase reporter activity in a dose-dependent manner; also recorded: induced ARE reporter luciferase activity in a dose-dependent manner; covalent modification of GSH / GSH conjugate formation [5]: covalently modified GSH; also recorded: formed GSH conjugates; purity (GC-MS) after degradation [6]: 58.1%; GSH conjugate in plasma [7]: a GSH conjugate with monooxygenated ligustilide (mass 206) could be detected in the plasma
CCC/C=C1\OC(=O)c2ccccc21 [Compound 2, Z-butylidenephthalide]	did not induce NQO1 activity	> 20 µM	< 50	IC50 at 48 h [3]: > 20 µM
CCC/C=C1\OC(=O)C23C=CCCC12C1(OC(=O)c2ccccc21)C3CCC (stereo not shown) [Compound 5, sinaspirolide]	did not show any NQO1 inducing activity	> 20 µM	< 50	
CCC/C=C1\OC(=O)C2=CC3CCC21[C@]1(OC(=O)c2ccccc21)[C@@H]3CCC (stereo partly shown) [Compound 4, ansaspirolide]	potent inducing properties	0.9 ± 0.1 µM	< 50	CI (Chemopreventive Index: IC50/CD) [1]: 3
CCC/C=C1\OC(=O)C2=C1CC[C@@H](O)[C@@H]2O [Compound 3, senkyunolide I]	weak NQO1 inducing properties	17.9 ± 0.6 µM	< 50	
